Assay results published in patent publication US20240366589A1, “NHE3-BINDING COMPOUNDS AND METHODS FOR INHIBITING PHOSPHATE TRANSPORT” (Ardelyx, Inc., priority 2013, published 2024).

Columns and labels:
[1] = system: absorption of sodium from the intestinal lumen; assay: Fecal form score (FFS) 16 h after oral dose in rats; format: in vivo, rat; details: oral gavage, 16 h post-dose, scale 1-5
Experimental: (§1) Inhibition of intestinal sodium and phosphate absorption. Urinary sodium concentration and fecal form were measured to assess the ability of selected example compounds to inhibit the absorption of sodium from the intestinal lumen. Eight-week old Sprague-Dawley rats were purchased from Charles River Laboratories (Hollister, CA), were housed 2 per cage, and acclimated for at least 3 days before study initiation. Animals were fed Harlan Teklad Global 2018 rodent chow (Indianapolis, IN) and water ad libitum throughout the study and maintained in a standard light/dark cycle of 6 AM to 6 PM. On the day of the study, between 4 PM and 5 PM, a group of rats (n=6) were dosed via oral gavage with test compound, or a pharmaceutically acceptable salt thereof, or vehicle (water) at a volume of 10 mL/kg.
(§2) After dose administration animals were placed in individual metabolic cages where they were also fed the same chow in meal form and watered ad libitum. At 16 h post-dose, the urine samples were collected and fecal form was assessed by two independent observations. Fecal forms were scored according to a common scale associated with increasing fecal water to the wettest observation in the cage's collection funnel (1, normal pellet; 2, pellet adhering to sides of collection funnel due to moisture; 3, loss of normal pellet shape; 4, complete loss of shape with a blotting pattern; 5, liquid fecal streams evident). A rat's fecal form score (FFS) was determined by averaging both observational scores for all rats within a group (n=6). The vehicle group average was 1.

[2] = system: phosphorus and calcium levels in the urine of rats; assay: Urinary excretion of phosphate and calcium in rats (16 h overnight urine); format: in vivo, rat; details: rats, oral gavage, 16 h post-dose
Human NHE3 = molecular target: T1, Human NHE3 (Homo sapiens, UniProt P48764); assay: Cell-based NHE3 activity under prompt conditions (OK cells, BCECF pH recovery), human NHE3; details: for Prompt Human NHE3 pIC50: prompt conditions
T1 construct: expressed in transfected cells; host or cells: Opossum kidney (OK) cells (ATCC), electroporation
T1 sequence (P48764 26-834): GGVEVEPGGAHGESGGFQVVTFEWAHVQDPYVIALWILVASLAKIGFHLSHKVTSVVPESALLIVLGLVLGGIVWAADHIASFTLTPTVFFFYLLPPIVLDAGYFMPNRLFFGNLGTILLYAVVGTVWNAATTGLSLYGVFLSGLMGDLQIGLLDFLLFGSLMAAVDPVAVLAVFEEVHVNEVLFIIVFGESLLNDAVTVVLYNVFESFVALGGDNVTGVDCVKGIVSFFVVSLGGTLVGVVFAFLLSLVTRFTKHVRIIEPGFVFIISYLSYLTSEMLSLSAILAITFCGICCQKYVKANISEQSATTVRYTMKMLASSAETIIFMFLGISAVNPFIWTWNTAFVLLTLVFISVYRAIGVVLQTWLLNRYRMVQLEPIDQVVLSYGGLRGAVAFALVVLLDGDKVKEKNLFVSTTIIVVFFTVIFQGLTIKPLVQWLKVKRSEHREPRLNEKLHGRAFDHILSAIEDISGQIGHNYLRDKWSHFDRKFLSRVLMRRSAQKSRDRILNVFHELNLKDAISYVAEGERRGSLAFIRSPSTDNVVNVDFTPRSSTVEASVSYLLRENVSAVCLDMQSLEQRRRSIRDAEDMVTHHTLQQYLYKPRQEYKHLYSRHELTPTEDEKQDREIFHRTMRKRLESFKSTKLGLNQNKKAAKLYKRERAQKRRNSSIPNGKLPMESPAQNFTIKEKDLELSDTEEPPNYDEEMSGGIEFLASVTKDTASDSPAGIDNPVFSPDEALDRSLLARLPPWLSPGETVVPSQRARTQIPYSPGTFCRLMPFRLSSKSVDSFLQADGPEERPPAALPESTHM
Experimental: (§3) Cell-based activity under Prompt Conditions. Rat or human NHE3-mediated Na^+-dependent H antiport was measured using a modification of the pH sensitive dye method originally reported by Paradiso (PNAS USA. 81:7436-7440, 1984). Opossum kidney (OK) cells were obtained from the ATCC and propagated per their instructions. The rat NHE3 gene (GenBank M85300) or the human NHE3 gene (GenBank NM_004174.1) was introduced into OK cells via electroporation, and cells were seeded into 96 well plates and grown overnight. Medium was aspirated from the wells, cells were washed twice with NaCl-HEPES buffer (100 mM NaCl, 50 mM HEPES, 10 mM glucose, 5 mM KCl, 2 mM CaCl2, 1 mM MgCl2, pH 7.4), then incubated for 30 min at room temperature with NH4Cl-HEPES buffer (20 mM NH4Cl, 80 mM NaCl, 50 mM HEPES, 5 mM KCl, 2 mM CaCl2, 1 mM MgCl2, pH 7.4) containing 5 μM bis(acetoxymethyl) 3,3′-(3′,6′-bis(acetoxymethoxy)-5-((acetoxymethoxy)carbonyl)-3-oxo-3H-spiro[isobenzofuran-1,9′-xanthene]-2′,7′-diyl)dipropanoate (BCECF-AM).
(§4) Cells were washed twice with Ammonium free, Na^+-free HEPES (100 mM choline, 50 mM HEPES, 10 mM glucose, 5 mM KCl, 2 mM CaCl2, 1 mM MgCl2, pH 7.4) and incubated in the same buffer for 10 minutes at room temperature to lower intracellular pH. […] Initial rates were plotted as the average 2 or more replicates, and pIC50 values were estimated using GraphPad Prism.
(§5) Cell-based activity of NHE3 Activity under ‘Prompt’ Conditions. This assay was performed as described in Example 1 (supra).

Rat NHE3 = molecular target: T2, Rat NHE3 (Rattus norvegicus, UniProt P26433); assay: Cell-based NHE3 activity under prompt conditions (OK cells, BCECF pH recovery), rat NHE3; details: for Prompt Rat NHE3 pIC50: prompt conditions
T2 construct: expressed in transfected cells; host or cells: Opossum kidney (OK) cells (ATCC), electroporation
T2 sequence (P26433 29-831): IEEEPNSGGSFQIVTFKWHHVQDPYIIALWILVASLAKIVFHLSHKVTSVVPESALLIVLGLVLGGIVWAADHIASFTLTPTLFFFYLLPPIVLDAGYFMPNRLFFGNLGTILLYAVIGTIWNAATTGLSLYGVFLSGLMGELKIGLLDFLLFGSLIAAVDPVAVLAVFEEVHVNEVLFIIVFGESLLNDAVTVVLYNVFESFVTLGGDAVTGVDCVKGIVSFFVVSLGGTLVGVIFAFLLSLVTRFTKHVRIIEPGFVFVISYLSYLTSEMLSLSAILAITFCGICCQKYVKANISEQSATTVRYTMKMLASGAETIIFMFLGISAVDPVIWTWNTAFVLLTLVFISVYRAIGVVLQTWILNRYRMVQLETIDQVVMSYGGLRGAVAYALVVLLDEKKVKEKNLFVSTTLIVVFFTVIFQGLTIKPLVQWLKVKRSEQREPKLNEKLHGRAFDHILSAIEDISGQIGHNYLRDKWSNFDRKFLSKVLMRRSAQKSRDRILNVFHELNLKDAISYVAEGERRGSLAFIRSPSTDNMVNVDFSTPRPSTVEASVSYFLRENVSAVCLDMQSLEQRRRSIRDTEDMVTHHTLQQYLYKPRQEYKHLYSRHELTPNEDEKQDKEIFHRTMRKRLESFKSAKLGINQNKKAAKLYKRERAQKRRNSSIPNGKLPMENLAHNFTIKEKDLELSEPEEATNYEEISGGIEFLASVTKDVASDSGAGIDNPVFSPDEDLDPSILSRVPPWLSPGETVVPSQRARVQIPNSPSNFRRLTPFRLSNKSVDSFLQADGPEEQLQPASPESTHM
Experimental: as §3, §4, §5

[3] = system: absorption of sodium from the intestinal lumen; assay: Inhibition of intestinal sodium absorption: urinary sodium (uNa) 16 h after single oral dose in rats; format: in vivo, rat; details: for Urine Na % of control: oral gavage, 16 h post-dose
Experimental: as §1, §2
For urine samples, the volumes were determined gravimetrically and centrifuged at 3,600×g. The supernatants were diluted 100-fold in deionized Milli-Q water then filtered through a 0.2 μm GHP Pall AcroPrep filter plate (Pall Life Sciences, Ann Arbor, MI) prior to analysis by ion chromatography. Ten microliters of each filtered extract was injected onto a Dionex ICS-3000 ion chromatograph system (Dionex, Sunnyvale, CA). Cations were separated by an isocratic method using 25 mM methanesulfonic acid as the eluent on an IonPac CS12A 2 mm i.d.×250 mm, 8 μm particle size cation exchange column (Dionex). Sodium was quantified using standards prepared from a cation standard mix containing Li^+, Na^+, NH4^+, K^+, Mg^2+, and Ca^2+ (Dionex). The mean mass of sodium urinated for every group in the 16 h period was determined with the vehicle group usually urinating approximately 21 mg sodium. The urine Na (uNa) for rats in the test groups were expressed as a percentage of the vehicle mean and the means were compared to that of the vehicle group by utilizing a one-way analysis of variance coupled with a Dunnett's post hoc test.
Further experiments were performed to test the compounds under the persistent and prompt conditions described above, and to test their effects on urinary excretion of sodium in rats. The latter was performed by orally dosing the compounds in rats (single dose) and measuring urinary Na excretion (as a % of vehicle). The results are indicated as percentage of urinary sodium (UNa %); low values indicate relatively active compounds.

SMILES	Fecal Form Score average ([1]; dose 10 mg/kg)	Urine P % of control ([2]; dose 10 mg/kg) [%]	Prompt Human NHE3 pIC50 (Human NHE3)	Prompt Rat NHE3 pIC50 (Rat NHE3)	Urine Na % of control ([3]; dose 10 mg/kg) [%]	further results
N[C@@H]1CCCN([C@H]2Cc3c(Cl)cc(Cl)cc3[C@@H]2Oc2ccc(S(=O)(=O)NCCOCCOCCNC(=O)NCCCCNC(=O)NCCOCCOCCNS(=O)(=O)c3ccc(O[C@H]4c5cc(Cl)cc(Cl)c5C[C@@H]4N4CCC[C@@H](N)C4)cc3)cc2)C1 [compound 135]	2	85	8.45	7.40	58	Fecal Form Score average ([1]; dose 1 mg/kg): 1; Fecal Form Score average ([1]; dose 3 mg/kg): 1; Urine P % of control ([2]; dose 1 mg/kg): 92%; Urine P % of control ([2]; dose 3 mg/kg): 44%; Urine Na % of control ([3]; dose 1 mg/kg): 100%; Urine Na % of control ([3]; dose 3 mg/kg): 94%
CN1Cc2c(Cl)cc(Cl)cc2C(c2cccc(S(=O)(=O)NCCOCCOCCOCCNC(=O)NCCN(CCNC(=O)NCCOCCOCCOCCNS(=O)(=O)c3cccc([C@@H]4CN(C)Cc5c(Cl)cc(Cl)cc54)c3)CCNC(=O)NCCOCCOCCOCCNS(=O)(=O)c3cccc([C@@H]4CN(C)Cc5c(Cl)cc(Cl)cc54)c3)c2)C1 (stereo in doubt) [compound 59]	2	45	7.30	6.90	18	
N=C(N)Nc1nc(-c2cccc(N3CCN(CCOCCOCCOCCNC(=O)CCOCCOCCOCCOCCOCCOCCOCCC(=O)NCCOCCOCCOCCN4CCN(c5cccc(-c6nc(NC(=N)N)nc7ccc(Cl)cc67)c5)CC4)CC3)c2)c2cc(Cl)ccc2n1 [compound 32]	1	122	8.40	7.30	128	
O=C(NCCOCCOCCOCCNS(=O)(=O)c1ccc(O[C@H]2c3ccccc3C[C@@H]2N2CCCCC2)cc1)c1ccc(C(=O)NCCOCCOCCOCCNS(=O)(=O)c2ccc(O[C@H]3c4ccccc4C[C@@H]3N3CCCCC3)cc2)cc1 [compound 117]	1	98	8.20	7.50	77	
CN(CC(=O)NCCOCCOCCNC(=O)NCCOCCOCCN1CCN(c2cccc(-c3nc(NC(=N)N)nc4ccc(Cl)cc34)c2)CC1)CC(=O)NCCOCCOCCNC(=O)NCCOCCOCCN1CCN(c2cccc(-c3nc(NC(=N)N)nc4ccc(Cl)cc34)c2)CC1 [compound 33]	1	117	7.90	7.40	98	
CN1Cc2c(Cl)cc(Cl)cc2[C@H](c2cccc(S(=O)(=O)NCCOCCOCCNC(=O)NCCC(N)(CCNC(=O)NCCOCCOCCNS(=O)(=O)c3cccc([C@@H]4CN(C)Cc5c(Cl)cc(Cl)cc54)c3)CCNC(=O)NCCOCCOCCNS(=O)(=O)c3cccc([C@@H]4CN(C)Cc5c(Cl)cc(Cl)cc54)c3)c2)C1 [compound 168]			8.13	7.35		Fecal Form Score average ([1]; dose 3 mg/kg): 1; Urine P % of control ([2]; dose 3 mg/kg): 50%; Urine Na % of control ([3]; dose 3 mg/kg): 56%
CN1Cc2c(Cl)cc(Cl)cc2[C@H](c2cccc(NC(=O)[C@H](O)[C@@H](O)[C@H](O)[C@H](O)CO)c2)C1 [Cpd 001]						IC50 (Human NHE3; Table E5, 001 free base, 002-005 dihydrochloride salt, read-out: Human NHE3 pIC50 Prompt (converted)): 39.8 nM; Rat NHE3 pIC50 Prompt (Rat NHE3; Table E5, 001 free base, 002-005 dihydrochloride salt): 7.6; UNa (%) ([3]; urinary Na excretion as % of vehicle, single oral dose 1 mg/kg): 41 @ 1 mg/kg %
CN(C)[C@H]1Cc2c(Cl)cc(Cl)cc2[C@@H]1Oc1ccc(S(=O)(=O)NCCOCCOCCNC(=O)NCCCCNC(=O)NCCOCCOCCN(C)S(=O)(=O)c2ccc(O[C@H]3c4cc(Cl)cc(Cl)c4C[C@@H]3N(C)C)cc2)cc1 [compound 171]	1	49	8.20		49	
CN1Cc2c(Cl)cc(Cl)cc2[C@H](c2cccc(S(=O)(=O)NCCOCCOCCOCCNC(=O)[C@@H](O)[C@H](O)C(=O)NCCOCCOCCOCCNS(=O)(=O)c3cccc([C@@H]4CN(C)Cc5c(Cl)cc(Cl)cc54)c3)c2)C1 [compound 6]			8.30			Fecal Form Score average ([1]; dose 1 mg/kg): 2; Urine P % of control ([2]; dose 1 mg/kg): 46%; Urine Na % of control ([3]; dose 1 mg/kg): 21%
CC(O)C(CCC(=O)NCCOCCOCCNS(=O)(=O)c1cccc([C@@H]2CN(C)Cc3c(Cl)cc(Cl)cc32)c1)(CCC(=O)NCCOCCOCCNS(=O)(=O)c1cccc([C@@H]2CN(C)Cc3c(Cl)cc(Cl)cc32)c1)CCC(=O)NCCOCCOCCNS(=O)(=O)c1cccc([C@@H]2CN(C)Cc3c(Cl)cc(Cl)cc32)c1 (some centres unmarked) [compound 173]			8.10	7.60		
O=C(NCCCCNC(=O)NCCOCCOCCNS(=O)(=O)c1ccc(O[C@H]2c3cc(Cl)cc(F)c3C[C@@H]2N2CCCCC2)cc1)NCCOCCOCCNS(=O)(=O)c1ccc(O[C@H]2c3cc(Cl)cc(F)c3C[C@@H]2N2CCCCC2)cc1 [compound 160]	1	77	7.70		108	
